From the supplement of paper PMC11451515

Columns and labels:
Conditions in all cases: 48 h
NOMO1 [1] = test: AUC of viability dose-response curve (% viability x log10 dose units); higher = less sensitive
Outline: (§1)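 Leukemia cells adapted to each medium were seeded in 1536-well plates (500 or 1000 cells/well) and given library compounds in DMSO for 48 h at 37°C. The 11 threefold doses spanned 47 μM to 0.79 nM, and CellTiter-Glo One luminescence was normalised per plate to DMSO and cell-free wells before four-parameter log-logistic fitting on log10 dose. Area under the curve was integrated with the trapezoidal rule, scaling curves above full viability and removing curves that failed quality control.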

SEM cells [2] = test: as above
Outline: as §1

P12-Ichikawa [3] = test: as above
Outline: as §1

NOMO1 [4] = test: cell viability relative to DMSO control; higher = less cytotoxic
Outline: (§2)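 Library compounds in DMSO were pin-dosed into 1536-well plates (5 μl) holding NOMO1 or SEM (500 cells/well) or P12-Ichikawa (1000 cells/well) leukemia cells, across an 11-point threefold series of 47 μM to 0.79 nM. Each cell line had been adapted for at least four passages in each medium. CellTiter-Glo One luminescence was read after 48 h at 37°C. Viability is the per-plate percentage relative to DMSO wells, with cell-free wells as background.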

SEM cells [5] = test: as above
Outline: as §2

P12-Ichikawa [6] = test: as above
Outline: as §2

Cc1cc(O)c2c3c4c(cc(O)c13)C(C)(C)C(=O)c1c(O)cc(O)c(c1-4)C2=O
AUC of viability dose-response curve
Conditions	NOMO1 [1]	P12-Ichikawa [3]	SEM cells [2]
HPLM + 10% dialyzed FBS	450	460	457
RPMI 5 mM glucose + 10% FBS	451	457	465
RPMI 5 mM glucose + 10% dialyzed FBS	462	454	450

cell viability [%]
Conditions	NOMO1 [4]	P12-Ichikawa [6]	SEM cells [5]
HPLM + 10% dialyzed FBS, 0.000781 µM	125	104	104
HPLM + 10% dialyzed FBS, 0.00234 µM	121	108	110
HPLM + 10% dialyzed FBS, 0.00702 µM	107	111	108
HPLM + 10% dialyzed FBS, 0.0211 µM	115	107	91.5
HPLM + 10% dialyzed FBS, 0.0632 µM	109	111	120
HPLM + 10% dialyzed FBS, 0.19 µM	112	106	114
HPLM + 10% dialyzed FBS, 0.569 µM	115	113	106
HPLM + 10% dialyzed FBS, 1.71 µM	99.2	107	117
HPLM + 10% dialyzed FBS, 5.12 µM	114	106	98.7
HPLM + 10% dialyzed FBS, 15.4 µM	101	105	90.8
HPLM + 10% dialyzed FBS, 46.1 µM	7.32	39	66.1
RPMI 5 mM glucose + 10% FBS, 0.000781 µM	106	107	–
RPMI 5 mM glucose + 10% FBS, 0.00234 µM	109	106	–
RPMI 5 mM glucose + 10% FBS, 0.00702 µM	109	109	–
RPMI 5 mM glucose + 10% FBS, 0.0211 µM	101	99.8	–
RPMI 5 mM glucose + 10% FBS, 0.0632 µM	88.6	114	–
RPMI 5 mM glucose + 10% FBS, 0.19 µM	101	107	–
RPMI 5 mM glucose + 10% FBS, 0.569 µM	90.5	115	–
RPMI 5 mM glucose + 10% FBS, 1.71 µM	104	109	–
RPMI 5 mM glucose + 10% FBS, 5.12 µM	101	110	–
RPMI 5 mM glucose + 10% FBS, 15.4 µM	85.2	97.2	–
RPMI 5 mM glucose + 10% FBS, 46.1 µM	26.1	42.2	–
RPMI 5 mM glucose + 10% dialyzed FBS, 0.000781 µM	89.5	103	91.4
RPMI 5 mM glucose + 10% dialyzed FBS, 0.00234 µM	95.2	112	90.9
RPMI 5 mM glucose + 10% dialyzed FBS, 0.00702 µM	118	117	92
RPMI 5 mM glucose + 10% dialyzed FBS, 0.0211 µM	98.9	109	94.3
RPMI 5 mM glucose + 10% dialyzed FBS, 0.0632 µM	109	107	110
RPMI 5 mM glucose + 10% dialyzed FBS, 0.19 µM	86.5	101	113
RPMI 5 mM glucose + 10% dialyzed FBS, 0.569 µM	107	111	98
RPMI 5 mM glucose + 10% dialyzed FBS, 1.71 µM	107	104	84.2
RPMI 5 mM glucose + 10% dialyzed FBS, 5.12 µM	112	105	97.4
RPMI 5 mM glucose + 10% dialyzed FBS, 15.4 µM	114	93.2	88.6
RPMI 5 mM glucose + 10% dialyzed FBS, 46.1 µM	36.5	35.2	65.5

OC[C@H]1O[C@@H](Oc2ccc(O)cc2)[C@H](O)[C@@H](O)[C@@H]1O
AUC of viability dose-response curve
Conditions	NOMO1 [1]	P12-Ichikawa [3]	SEM cells [2]
HPLM + 10% dialyzed FBS	461	461	376
RPMI 5 mM glucose + 10% FBS	426	421	390
RPMI 5 mM glucose + 10% dialyzed FBS	404	426	397

cell viability [%]
Conditions	NOMO1 [4]	P12-Ichikawa [6]	SEM cells [5]
HPLM + 10% dialyzed FBS, 0.000781 µM	88.1	85.1	68.3
HPLM + 10% dialyzed FBS, 0.00234 µM	102	93.5	82.3
HPLM + 10% dialyzed FBS, 0.00702 µM	95.4	93.1	75.3
HPLM + 10% dialyzed FBS, 0.0211 µM	105	95.7	93
HPLM + 10% dialyzed FBS, 0.0632 µM	95.9	98.3	90.1
HPLM + 10% dialyzed FBS, 0.19 µM	102	99.9	95.1
HPLM + 10% dialyzed FBS, 0.569 µM	79.7	102	95.7
HPLM + 10% dialyzed FBS, 1.71 µM	101	101	19.1
HPLM + 10% dialyzed FBS, 5.12 µM	86.5	94.2	93.1
HPLM + 10% dialyzed FBS, 15.4 µM	114	98.4	77.7
HPLM + 10% dialyzed FBS, 46.1 µM	104	97	76.3
RPMI 5 mM glucose + 10% FBS, 0.000781 µM	81.4	80.7	71.7
RPMI 5 mM glucose + 10% FBS, 0.00234 µM	93.9	79.8	90.8
RPMI 5 mM glucose + 10% FBS, 0.00702 µM	87	87	73.7
RPMI 5 mM glucose + 10% FBS, 0.0211 µM	83.1	94.9	96.3
RPMI 5 mM glucose + 10% FBS, 0.0632 µM	86	95.7	90.3
RPMI 5 mM glucose + 10% FBS, 0.19 µM	87.7	86	95.4
RPMI 5 mM glucose + 10% FBS, 0.569 µM	98.5	84.7	102
RPMI 5 mM glucose + 10% FBS, 1.71 µM	91.5	83.6	17
RPMI 5 mM glucose + 10% FBS, 5.12 µM	92.5	90.9	82.3
RPMI 5 mM glucose + 10% FBS, 15.4 µM	90.8	93.1	103
RPMI 5 mM glucose + 10% FBS, 46.1 µM	88.9	91.3	77.2
RPMI 5 mM glucose + 10% dialyzed FBS, 0.000781 µM	65.2	80.1	86.2
RPMI 5 mM glucose + 10% dialyzed FBS, 0.00234 µM	74.8	84.8	81.8
RPMI 5 mM glucose + 10% dialyzed FBS, 0.00702 µM	85.4	91.1	92.2
RPMI 5 mM glucose + 10% dialyzed FBS, 0.0211 µM	82.1	93.4	87.8
RPMI 5 mM glucose + 10% dialyzed FBS, 0.0632 µM	82.3	93.6	72
RPMI 5 mM glucose + 10% dialyzed FBS, 0.19 µM	79.6	87.8	101
RPMI 5 mM glucose + 10% dialyzed FBS, 0.569 µM	89.1	88.4	105
RPMI 5 mM glucose + 10% dialyzed FBS, 1.71 µM	94.5	88.7	22.1
RPMI 5 mM glucose + 10% dialyzed FBS, 5.12 µM	86.1	93.1	97.9
RPMI 5 mM glucose + 10% dialyzed FBS, 15.4 µM	95.5	89.6	88
RPMI 5 mM glucose + 10% dialyzed FBS, 46.1 µM	93.4	88.4	81.2
